How the values were obtained:
Assay type in all cases: cell-based
[1] = test system: RPMI1788 cells (human normal B cell line); assay: Cell death inducing effect on RPMI1788 normal B cells, trypan blue staining; settings: RPMI1788 (normal B lymphocyte), cell viability
Description: (§1) RPMI1788 cells (human normal B cell line) were cultured under 5% CO2 at 37° C. The culture medium used RPMI-1640 medium with 100 μg/mL penicillin, 100 U/mL streptomycin and fetal bovine serum. RPMI1788 cells were seeded into 96-well plates and incubated with each concentration of the compounds was added, and cell viability was determined by the trypan blue staining.
(§2) For controls, only 0.5% DMSO (diluted in PBS) used to dissolve the compounds was added. For each concentration, each bar line is indicated by an arrow with the sign “n, a, 1, 2, 3, 4, 5, 6, 7, 8, 9, 10, 11, 12” from left to right. The “1, 3, 5, 7, 9, 11” are omitted from the graph, but the sign “1” shall be indicated by an arrow between the signs “a” and “2”, the sign “3” between the signs “2” and “4”, and other odd numbers shall likewise be indicated by arrows between even numbers before and after.
(§3) The sign “n” is the norathyriol (formula (n)) administration group, the sign “a” is the mangiferin 8a (formula (a)) administration group, the sign “1” is the yk-7 (formula (1)) administration group, the sign “2” is the yk-8-1 (formula (2)) administration group, the sign “3” is the yk-8-3 (formula (3)) administration group, the sign “4” is the M7 (formula (4)) administration group, the sign “5” is the M9 (formula (5)) administration group, the sign “6” is the M11 (formula (6)) administration group, the sign “7” is the M12 (formula (7)) administration group, the sign “8” is the M14 (formula (8)) administration group, the sign “9” is the M15 (formula (9)) administration group, the sign “10” is the M16 (formula (10)) administration group, the sign “11” is the M18 (formula (11)) administration group, the sign “12” is the M19 (formula (12)) administration group, respectively. The IC50 values for each compound is also listed in the upper right corner of the figure.

[2] = test system: CCRF-SB cells (acute lymphocytic leukemia cell line); assay: Cell death inducing effect on CCRF-SB cells, trypan blue staining; settings: CCRF-SB (acute lymphoblastic leukemia), cell viability
Description: as §1, with “CCRF-SB” for “RPMI1788”, “(acute lymphocytic leukemia” for “(human normal B”
as §2, §3

[3] = test system: RPMI8226/B cells (bortezomib-resistant myeloma cell line); assay: Cell death inducing effect on RPMI8226/B cells, trypan blue staining; settings: RPMI8226/B (myeloma; bortezomib resistance), cell viability
Description: as §1, with “RPMI8226/B” for “RPMI1788”, “(bortezomib-resistant myeloma” for “(human normal B”
as §2, §3

CD138 = CD138 expression in KMS-28BM cells, flow cytometry; settings: 10 days, concentration lower than the IC50 (0.005-50 μM), compared to the positive control
Description: As a control, compounds untreated KMS-28BM cells were seeded in 75 cm^2 flasks and incubated for 10 days at 37° C. and 5% CO2. KMS-28BM cells were seeded into 75 cm^2 flasks and pre-cultured for 4 h. After incubation, KMS-28BM cells were treated with […], 0.05 μM M9, 0.1 μM yk-7, 0.1 μM yk-8-3, 50 μM yk-8-1, 0.5 μM M11, […], 0.005 μM M14, 0.005 μM M15, 0.005 μM M16, 0.5 μM M18, and 0.5 μM M19 at final concentrations, and incubated for 10 days at 37° C. and 5% CO2. This added amount is a concentration lower than the IC50 of the above compounds for KMS-28BM cells. After 10 days of incubation, cells were stained with anti-CD138 antibody, a marker of multiple myeloma grade, and CD138 expression was measured using BD LSRFortessa.
Results are shown in FIG. 17, FIG. 18, FIG. 19 and FIG. 20. The horizontal axis represents the expression level of CD138 and the vertical axis represents the number of cells.

CD20 [4] = assay: CD20 expression in L363 cells, flow cytometry; settings: 10 days, concentration lower than the IC50 (0.005-50 μM), compared to the positive control
Description: As a control, compounds untreated L363 cells were seeded in 75 cm^2 flasks and incubated for 10 days at 37° C. and 5% CO2. L363 cells were seeded into 75 cm^2 flasks and pre-cultured for 4 h. After incubation, L363 cells were treated with 0.1 μM M7, 0.05 μM M9, 0.1 μM yk-7, 0.1 μM yk-8-3, 50 μM yk-8-1, 0.1 μM M11, 0.01 μM M12, 0.005 μM M14, 0.005 μM M15, 0.005 μM M16, 1 μM M18, and 1 μM M19 at final concentrations, and incubated for 10 days at 37° C. and 5% CO2. This added amount is a concentration lower than the IC50 of the above compounds for L363 cells. After 10 days of incubation, cells were stained with anti-CD20 antibody, a B cell marker, and CD20 expression was measured using BD LSRFortessa. CCRF-SB cells were used as CD20-positive controls.
Results are shown in FIG. 29, FIG. 30, FIG. 31, and FIG. 32. The horizontal axis represents the expression level of CD20 and the vertical axis represents the number of cells.

CD20 [5] = assay: CD20 expression in KMS-28BM cells, flow cytometry; settings: 10 days, concentration lower than the IC50 (0.005-50 μM), compared to the positive control
Description: As a control, compounds untreated KMS-28BM cells were seeded in 75 cm^2 flasks and incubated for 10 days at 37° C. and 5% CO2. KMS-28BM cells were seeded into 75 cm^2 flasks and pre-cultured for 4 h. After incubation, KMS-28BM cells were treated with […], 0.05 μM M9, 0.1 μM yk-7, 0.1 μM yk-8-3, 50 μM yk-8-1, 0.5 μM M11, […], 0.005 μM M14, 0.005 μM M15, 0.005 μM M16, 0.5 μM M18, and 0.5 μM M19 at final concentrations, and incubated for 10 days at 37° C. and 5% CO2. This added amount is a concentration lower than the IC50 of the above compounds for KMS-28BM cells. After 10 days of incubation, cells were stained with anti-CD20 antibody, a B cell marker, and CD20 expression was measured using BD LSRFortessa. CCRF-SB cells were used as CD20-positive controls.
Results are shown in FIG. 21, FIG. 22, FIG. 23, and FIG. 24. The horizontal axis represents the expression level of CD20 and the vertical axis represents the number of cells.

Compound | IC50 [1] [µM] | IC50 [2] [µM] | IC50 [3] [µM] | CD138 expression levels (CD138) | IC50 ([1]; Homo sapiens, RPMI-1788) [µM] | CD20 expression level (CD20 [4]) | IC50 ([2]; Homo sapiens) [µM] | IC50 ([3]; Homo sapiens, RPMI-8226) [µM] | CD20 expression level (CD20 [5])
1,2′,3′,4′,6-penta-O-propionylmangiferin [Compound 8a, reference compound] | > 100 | 7.42 | 0.892 |  |  |  |  |  | 
CCC(=O)OC[C@H]1O[C@@H](c2c(O)cc3oc4cc(O)c(O)cc4c(=O)c3c2O)[C@H](OC(=O)CC)[C@@H](OC(=O)CC)[C@@H]1OC(=O)CC [Compound M9, 2′,3′,4′,6′-tetra-O-propionylmangiferin] |  |  |  | markedly reduced | > 100 | significantly increased | 1.62 | 0.069 | significantly increased
CCCCC(=O)OC[C@H]1O[C@@H](c2c(O)cc3oc4cc(O)c(O)cc4c(=O)c3c2OC(=O)CCCC)[C@H](OC(=O)CCCC)[C@@H](OC(=O)CCCC)[C@@H]1OC(=O)CCCC [yk-8-3, 1,2′,3′,4′,6-penta-O-valerylmangiferin] |  |  |  | markedly reduced | 0.416 | significantly increased | 2.41 | 0.231 | significantly increased
C=CCOc1cc(O)cc2oc3cc(O)c(O)cc3c(=O)c12 [Compound M19, 1-allyloxy-3,6,7-trihydroxy-9H-xanthen-9-one] |  |  |  | markedly reduced | > 100 | significantly increased | 18.2 | 0.758 | significantly increased
CCCC(=O)OC[C@H]1O[C@@H](c2c(O)cc3oc4cc(O)c(O)cc4c(=O)c3c2O)[C@H](OC(=O)CCC)[C@@H](OC(=O)CCC)[C@@H]1OC(=O)CCC [Compound M14, 2′,3′,4′,6′-tetra-O-butyrylmangiferin] |  |  |  | markedly reduced | 69 | significantly increased | 0.287 | 0.051 | significantly increased
CCCC(=O)OC[C@H]1O[C@@H](c2c(O)cc3oc4cc(O)c(O)cc4c(=O)c3c2OC(=O)CCC)[C@H](OC(=O)CCC)[C@@H](OC(=O)CCC)[C@@H]1OC(=O)CCC [Compound M12, 1,2′,3′,4′,6-penta-O-butyrylmangiferin] |  |  |  | markedly reduced | 75 | significantly increased | 0.954 | 0.091 | significantly increased
O=c1c2cc(O)c(O)cc2oc2cc(O)cc(OCCO)c12 [Compound M18, 3,6,7-trihydroxy-1-(2-hydroxyethoxy)-9H-xanthen-9-one] |  |  |  | markedly reduced | > 100 | significantly increased | 9.18 | 0.486 | significantly increased
CCCCO[C@@H]1[C@@H](OCCCC)[C@H](c2c(O)cc3oc4cc(O)c(O)cc4c(=O)c3c2O)O[C@H](COC(=O)CCC)[C@H]1OC(=O)CCC [Compound M16, 2′,3′-di-O-butyl-4′,6′-di-O-butyrylmangiferin] |  |  |  | markedly reduced | 58 | significantly increased | 0.198 | 0.042 | significantly increased
CCCCC(=O)OC[C@H]1O[C@@H](c2c(OC(=O)CCCC)cc3oc4cc(OC(=O)CCCC)c(OC(=O)CCCC)cc4c(=O)c3c2OC(=O)CCCC)[C@H](OC(=O)CCCC)[C@@H](OC(=O)CCCC)[C@@H]1OC(=O)CCCC [yk-8-1, 1,3,2′,3′,4′,6,6′,7-octa-O-valerylmangiferin] | > 100 | > 100 | 6.43 | markedly reduced |  | significantly increased |  |  | significantly increased
O=c1c2cc(O)c(O)cc2oc2cc(O)cc(O)c12 [norathyriol, reference compound] |  |  |  |  |  |  | 12.3 | 0.632 | 
CCCC(=O)OC[C@H]1O[C@@H](c2c(OC(=O)CCC)cc3oc4cc(OC(=O)CCC)c(OC(=O)CCC)cc4c(=O)c3c2OC(=O)CCC)[C@H](OC(=O)CCC)[C@@H](OC(=O)CCC)[C@@H]1OC(=O)CCC [Compound M11, 1,3,2′,3′,4′,6,6′,7-octa-O-butyrylmangiferin] | > 100 | 7.82 | 0.169 | markedly reduced |  | significantly increased |  |  | significantly increased
CCC(=O)OC[C@H]1O[C@@H](c2c(OC(=O)CC)cc3oc4cc(OC(=O)CC)c(OC(=O)CC)cc4c(=O)c3c2OC(=O)CC)[C@H](OC(=O)CC)[C@@H](OC(=O)CC)[C@@H]1OC(=O)CC [Compound M7, 1,3,2′,3′,4′,6,6′,7-octa-O-propionylmangiferin] |  |  |  | markedly reduced | > 100 | significantly increased | 6.76 | 0.251 | significantly increased
CC(C)(C)C(=O)OC[C@H]1O[C@@H](c2c(O)cc3oc4cc(O)c(O)cc4c(=O)c3c2O)[C@H](OC(=O)C(C)(C)C)[C@@H](OC(=O)C(C)(C)C)[C@@H]1OC(=O)C(C)(C)C [Compound M15, 2′,3′,4′,6′-tetra-O-pivaloylmangiferin] |  |  |  | markedly reduced | 71 | significantly increased | 0.357 | 0.071 | significantly increased
